Assay results reported in US6630473B1, “Anti-inflammatory agents and inhibitors against increase in ocular tension caused by irradiation with lasers, containing 1,4-dihydropyridine derivatives” (Senju Pharmaceutical Co., Ltd., priority 1999, dated 2003).
Several values for one entry are separate records, joined by “and”; a condition that tells them apart may be missing. Identical values can stand only once. Counter-ions that a name gives are not always drawn.

How the values were obtained:
[1] = test system: intraocular inflammation induced by photocoagulation of iris due to argon laser irradiation; experiment: Anterior chamber protein concentration (laser flare cell meter) after argon laser irradiation of iris; format: in vivo, Male Dutch colored house rabbits; conditions: for protein concentration after laser irradiation, Treated eye / protein concentration after laser irradiation, Non-treated eye: mean ± SE (n = 4); for protein concentration after laser irradiation: intravenous 500 μg/500 μl/kg at 30 minutes and immediately before laser irradiation, mean ± standard error (n = 4)
Text: (§1) The effect of the inventive compound on intraocular inflammation and rise of intraocular pressure induced by photocoagulation of iris due to argon laser irradiation was examined. As regards intraocular inflammation, the anterior chamber protein concentration (photon/msec) was used as an index. Male Dutch colored house rabbits weighing about 2 kg purchased from Fukusaki Rabbit Breeding Cooperative were used for the test, after confirmation of absence of abnormality. The rabbits were raised at temperature of 23±3° C., humidity of 55±10% on a solid feed (the NOSAN GROUP: Labo R Stock, NIHON NOSAN) 100 g a day, allowing free access to tap water. […] The argon laser was irradiated in the middle of both eyes between limbus and the base of iris at 5 sites at the same intervals, under the conditions of size: 200 μm, irradiation time (duration): 0.5 sec, output (power): 0.35 W. To remove the effect of fibrin that occurs after laser irradiation, heparin (1000 U/kg) was intravenously administered. The increase in the anterior chamber protein concentration caused by ophthalmic inflammation was measured with a laser flare cell meter (Kowa Co., Ltd.) immediately before, 30 minutes after and 1 hour after laser irradiation. Nicardipine hydrochloride was intravenously administered at 30 minutes and immediately before laser irradiation by 500 μg/500 μl/kg. Heparin was administered 5 minutes after the first administration of nicardipine hydrochloride. Heparin was administered to the control group at 30 minutes before laser irradiation. Into one eye of the house rabbits was instilled 0.05% and 0.1% iganidipine hydrochloride and 0.1% nicardipine hydrochloride, and into each opposite eye was instilled physiological saline by 10 μl at 30 minutes before laser irradiation. The eye instilled with the test material was taken as the treated eye, and the opposite eye instilled with physiological saline was taken as the non-treated eye. In view of the influence of the test material on the opposite eye, the control eyes were prepared, wherein physiological saline was instilled into one eye, and the other eye was not treated, respectively taken as the control of the treated eye and the control of the non-treated eye. Heparin was intravenously administered immediately after instillation of the test material and physiological saline.

[2] = test system: rise of intraocular pressure induced by photocoagulation of iris due to argon laser irradiation; experiment: Intraocular pressure (pneumatonograph) after argon laser irradiation of iris; format: in vivo, Male Dutch colored house rabbits
Text: as §1, with “intraocular pressure of” for “increase in”, “both eyes” for “anterior chamber protein concentration caused by ophthalmic inflammation”, “measured” for “measured with a laser flare cell meter (Kowa Co., Ltd.)”, “before” for “before, 30 minutes after”, “0.25, 0.5, 1, 2, 3 and 4 hours” for “1 hour”

[3] = test system: prostaglandin E2 (PGE2) induced inflammatory responses in the anterior uveal tissues and rise of intraocular pressure; conditions: systemic administration before administration of PGE2; cited from earlier work
[4] = test system: experimental endophthalmitis induced by photocoagulation of iris by the argon laser; conditions: literature report; nicardipine by intravenous administration; cited from earlier work

With `C=CCN1CCN(CC(C)(C)COC(=O)C2=C(C)NC(C)=C(C(=O)OC)C2c2cccc([N+](=O)[O-])c2)CC1.Cl.Cl` (stereo not drawn) [iganidipine hydrochloride, 3-(4-allyl-1-piperazinyl)-2,2-dimethylpropyl methyl 2,6-dimethyl-4-(m-nitrophenyl)-1,4-dihydropyridine-3,5-dicarboxylate dihydrochloride] as the compound, how does the “protein concentration after laser irradiation, Treated eye” value ([1]; instillation of 0.05% iganidipine hydrochloride 10 μl 30 minutes before laser, time 0 min) read?
The value was 20.55 ± 5.02 /msec.

What about the “protein concentration after laser irradiation, Treated eye” value ([1]; instillation of 0.05% iganidipine hydrochloride 10 μl 30 minutes before laser, time 30 min, dihydrochloride) of the same compound?
Its value is 73.8 /msec and 73.75 ± 8.67 /msec.

And the “protein concentration after laser irradiation, Treated eye” value ([1]; instillation of 0.05% iganidipine hydrochloride 10 μl 30 minutes before laser, time 60 min)?
Its value is 284.10 ± 17.03 /msec.

What about the “protein concentration after laser irradiation, Treated eye” value ([1]; instillation of 0.1% iganidipine hydrochloride 10 μl 30 minutes before laser, time 0 min) of the same compound?
Its value is 19.18 ± 2.37 /msec.

And the “protein concentration after laser irradiation, Treated eye” value ([1]; instillation of 0.1% iganidipine hydrochloride 10 μl 30 minutes before laser, time 30 min, dihydrochloride)?
The value was 84.7 /msec and 84.70 ± 29.66 /msec.

And the “protein concentration after laser irradiation, Treated eye” value ([1]; instillation of 0.1% iganidipine hydrochloride 10 μl 30 minutes before laser, time 60 min)?
Its value is 227.18 ± 10.03 /msec.

And the “protein concentration after laser irradiation, Non-treated eye” value (shortened to “protein concentration … Non-treated eye”) ([1]; opposite eye (physiological saline) from eye instilled with 0.05% iganidipine hydrochloride, time 0 min)?
Its value is 11.73 ± 2.97 /msec.

What about the “protein concentration … Non-treated eye” value ([1]; opposite eye (physiological saline) from eye instilled with 0.05% iganidipine hydrochloride, time 30 min) of the same compound?
The value was 68.53 ± 14.40 /msec.

What about the “protein concentration … Non-treated eye” value ([1]; opposite eye (physiological saline) from eye instilled with 0.05% iganidipine hydrochloride, time 60 min) of the same compound?
The value was 313.13 ± 27.06 /msec.

And the “protein concentration … Non-treated eye” value ([1]; opposite eye (physiological saline) from eye instilled with 0.1% iganidipine hydrochloride, time 0 min)?
Its value is 16.03 ± 2.97 /msec.

What about the “protein concentration … Non-treated eye” value ([1]; opposite eye (physiological saline) from eye instilled with 0.1% iganidipine hydrochloride, time 30 min) of the same compound?
Its value is 117.33 ± 31.50 /msec.

What about the “protein concentration … Non-treated eye” value ([1]; opposite eye (physiological saline) from eye instilled with 0.1% iganidipine hydrochloride, time 60 min) of the same compound?
Its value is 244.45 ± 39.46 /msec.

What about the “time to restore to the original intraocular pressure” value ([2]; eye instilled with 0.05%) of the same compound?
The value was 90 min.

What about the “rise of intraocular pressure from the initial value” ([2]; eye instilled with 0.05%, 30 minutes from laser irradiation (FIG. 3)) of the same compound?
The value was 6 mmHg.

And the “time to restore to the original intraocular pressure” value ([2]; eye instilled with 0.1%)?
The value was 120 min.

What about the “rise of intraocular pressure from the initial value” ([2]; eye instilled with 0.1%, 30 minutes from laser irradiation (FIG. 2)) of the same compound?
The value was 7.5 mmHg.

And the “intraocular pressure of opposite (non-treated) eye compared with control group” value ([2]; eye instilled with physiological saline opposite to the test-material eye, 3 hours after irradiation)?
The value was “more significant decrease”.

For `COC(=O)C1=C(C)NC(C)=C(C(=O)OCCN(C)Cc2ccccc2)C1c1cccc([N+](=O)[O-])c1` (stereo not drawn) [nicardipine hydrochloride], which “anterior chamber protein concentration compared with control group” value ([1]; eye instilled with 0.1%, 30 minutes after laser irradiation) is on record?
The value was “without difference from the control group”.

What about the “protein concentration after laser irradiation, Treated eye” value ([1]; instillation of 0.1% nicardipine hydrochloride 10 μl 30 minutes before laser, time 0 min) of the same compound?
The value was 20.55 ± 5.02 /msec.

What about the “protein concentration after laser irradiation, Treated eye” value ([1]; instillation of 0.1% nicardipine hydrochloride 10 μl 30 minutes before laser, time 30 min, hydrochloride) of the same compound?
The value was 184.1 /msec and 184.05 ± 35.1 /msec.

And the “protein concentration after laser irradiation, Treated eye” value ([1]; instillation of 0.1% nicardipine hydrochloride 10 μl 30 minutes before laser, time 60 min)?
Its value is 337.23 ± 46.4 /msec.

And the “protein concentration after laser irradiation” value ([1]; time 0 min)?
The value was 15.53 ± 0.14 /msec.

What about the “protein concentration after laser irradiation” value ([1]; time 30 min, hydrochloride) of the same compound?
The value was 58.1 /msec and 58.08 ± 18.14 /msec.

And the “protein concentration after laser irradiation” value ([1]; time 60 min)?
Its value is 30.85 ± 2.58 /msec.

What about the “protein concentration … Non-treated eye” value ([1]; opposite eye (physiological saline) from eye instilled with 0.1% nicardipine hydrochloride, time 0 min) of the same compound?
The value was 11.73 ± 2.97 /msec.

And the “protein concentration … Non-treated eye” value ([1]; opposite eye (physiological saline) from eye instilled with 0.1% nicardipine hydrochloride, time 30 min)?
The value was 118.93 ± 21.21 /msec.

What about the “protein concentration … Non-treated eye” value ([1]; opposite eye (physiological saline) from eye instilled with 0.1% nicardipine hydrochloride, time 60 min) of the same compound?
The value was 349.85 ± 23.02 /msec.

What about the “effect on the rise of intraocular pressure after laser irradiation” value ([2]; eye instilled with 0.1% (FIG. 4)) of the same compound?
The value was “significant inhibition of the rise of intraocular pressure”.

And the intraocular pressure ([2]; intravenous administration group, 30 minutes after the irradiation (FIG. 1))?
The intraocular pressure was 24.2 mmHg.

What about the intraocular pressure ([2]; intravenous administration group, 1 hour after the irradiation (FIG. 1)) of the same compound?
Its intraocular pressure is 20.8 mmHg.

And the “time until which the intraocular pressure effect was sustained” value ([2]; intravenous administration group, after the irradiation)?
Its value is 4 h.

And the “decrease of intraocular pressure” value ([2]; intravenous administration group, at 1 hour after the irradiation versus immediately before laser irradiation)?
The value was 9.3 mmHg.

And the intraocular pressure ([2]; intravenous administration group, immediately before laser irradiation (FIG. 1))?
The intraocular pressure was 30.1 mmHg.

What about the “effect on PGE2-induced inflammatory responses and temporary rise of intraocular pressure” value [3] of the same compound?
The value was “inhibits these responses in a dose-dependent manner”.

What about the “effect on experimental endophthalmitis induced by argon laser photocoagulation of iris” value [4] of the same compound?
The value was “inhibited experimental endophthalmitis”.

With `COC(=O)C1=C(C#N)NC(C)=C(C(=O)OC(C)C)C1c1cccc([N+](=O)[O-])c1` (stereo not drawn) [nilvadipine] as the compound, how does the “effect on PGE2-induced inflammatory responses and temporary rise of intraocular pressure” value [3] read?
The value was “inhibits these responses in a dose-dependent manner”.
